# Data published in publication PMC3525792 (Bioorganic & medicinal chemistry letters, 2012).
# Biological target: EGFP-hSERT (UniProt P31645+P42212, F64L/H231L/S65T)
# Type: cell-based, human
compound,measurement,setting,value
CCN(CC)c1ccc2c(-c3ccc(S(=O)(=O)NCCCCCC(=O)NCCC(=O)Nc4cccc(-c5ccc6c(c5)COC6(CCCN(C)C)c5ccc(F)cc5)c4)cc3S(=O)(=O)[O-])c3ccc(=[N+](CC)CC)cc-3oc2c1 (centres unmarked) [compound 8],labeling of EGFP-SERT in live cells in the presence of paroxetine,"20 nM 8, 37°C, preincubation with 1 μM paroxetine 30 min",no fluorescence was observed at the cell surface in the red channel
same,labeling of EGFP-SERT in live cells,"20 nM 8, 60 min at 37°C, HEK293 EGFP-hSERT, without paroxetine",labels SERT with high specificity
